Source: ChEMBL document CHEMBL1201862, “PubChem BioAssay data set” (2004)
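How tested: cells in 96-well plates exposed to compound for 48 hours at five concentrations. At the GI50, growth is halved.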 Calls of active or inactive are those of the source. No stated cut-off is given here; in the data, active = GI50 up to about 1.1 µM and inactive = higher.

What was measured:
Assay in all cases: NCI anticancer screen, dose series, 48 h
SNB-19 = tested on: SNB-19
IGROV-1 = tested on: IGROV-1
BT-549 = tested on: BT-549
NCI-H23 = tested on: NCI-H23
KM12 = tested on: KM12
CAKI-1 = tested on: CAKI-1
MDA-MB-435 = tested on: MDA-MB-435
U-251 = tested on: U-251
NCI/ADR-RES = tested on: NCI/ADR-RES
HOP-62 = tested on: HOP-62
T47D = tested on: T47D
OVCAR-3 = tested on: OVCAR-3
EKVX = tested on: EKVX
SF-268 = tested on: SF-268
RXF 393 = tested on: RXF 393
RPMI-8226 = tested on: RPMI-8226
A549 = tested on: A549
OVCAR-5 = tested on: OVCAR-5
HL-60 = tested on: HL-60

Row | Compound | GI50 (SNB-19) | GI50 (IGROV-1) | GI50 (BT-549) | GI50 (NCI-H23) | GI50 (KM12) | GI50 (CAKI-1) | GI50 (MDA-MB-435) | GI50 (U-251) | GI50 (NCI/ADR-RES) | GI50 (HOP-62) | GI50 (T47D) | GI50 (OVCAR-3) | GI50 (EKVX) | GI50 (SF-268) | GI50 (RXF 393) | GI50 (RPMI-8226) | GI50 (A549) | GI50 (OVCAR-5) | GI50 (HL-60)
1 | C=C(C)C1CC2=C(O1)C(=O)c1cccc(O)c1C2=O (configuration not stated) | 1.95 µM (inactive) | 0.256 µM (active) | 0.406 µM (active) | 0.244 µM (active) | 1.69 µM (inactive) | 0.764 µM (active) | 0.129 µM (active) | 1.43 µM (inactive) | 1.05 µM (active) | 1.57 µM (inactive) | 1.23 µM (inactive) | 0.214 µM (active) | 1.17 µM (inactive) | 0.333 µM (active) | 1.04 µM (active) | 0.265 µM (active) | 2.47 µM (inactive) | 1.57 µM (inactive) | –
2 | Cn1c(=O)c2nc(CCCCc3nc4c(=O)n(C)c(=S)n(C)c4[nH]3)[nH]c2n(C)c1=S | 76.6 µM (inactive) | > 100 µM (inactive) | > 100 µM (inactive) | > 100 µM (inactive) | > 100 µM (inactive) | > 100 µM (inactive) | > 100 µM (inactive) | 57.4 µM (inactive) | > 100 µM (inactive) | 38.9 µM (inactive) | > 100 µM (inactive) | > 100 µM (inactive) | 23.4 µM (inactive) | > 100 µM (inactive) | > 100 µM (inactive) | > 100 µM (inactive) | > 100 µM (inactive) | > 100 µM (inactive) | –
3 | CCC(=O)Nc1ccc(NCC(=O)Nc2ccc(Cl)cc2)cc1 | 19.8 µM (inactive) | 18.4 µM (inactive) | 21.9 µM (inactive) | 18.5 µM (inactive) | 12.7 µM (inactive) | 14.3 µM (inactive) | 15.7 µM (inactive) | – | 33.2 µM (inactive) | 13.7 µM (inactive) | 12.8 µM (inactive) | 15.7 µM (inactive) | 14 µM (inactive) | 22.6 µM (inactive) | 16.5 µM (inactive) | 21.2 µM (inactive) | 19.7 µM (inactive) | 13.9 µM (inactive) | 14.1 µM (inactive)
4 | CC(C)C[C@H](NC(=O)CCc1cccc2ccccc12)B(O)O | 5.43 µM (inactive) | 2.13 µM (inactive) | 0.506 µM (active) | 1.16 µM (inactive) | 1.89 µM (inactive) | 0.368 µM (active) | 0.31 µM (active) | 1.7 µM (inactive) | 1.95 µM (inactive) | 3.22 µM (inactive) | 1.25 µM (inactive) | 0.463 µM (active) | 5.27 µM (inactive) | 1.32 µM (inactive) | 0.54 µM (active) | 0.331 µM (active) | 4.74 µM (inactive) | 0.908 µM (active) | –
5 | COc1cc(S(=O)(=O)Nc2nc(-c3ccc(/N=C/c4ccccc4O)cc3)cs2)ccc1Cl | 34.2 µM (inactive) | 31.4 µM (inactive) | 37.4 µM (inactive) | 36.3 µM (inactive) | 53.8 µM (inactive) | 60.4 µM (inactive) | 54.5 µM (inactive) | 36.9 µM (inactive) | 50.5 µM (inactive) | 40.3 µM (inactive) | 27.4 µM (inactive) | 33 µM (inactive) | 23.4 µM (inactive) | 32 µM (inactive) | 34.3 µM (inactive) | – | 41.3 µM (inactive) | > 100 µM (inactive) | 35.6 µM (inactive)
6 | CCOc1ccc(NC(=O)/C(=N\N)C(C(=O)OC)c2nc3ccc(Cl)cc3nc2O)cc1 (configuration not stated) | – | 79.1 µM (inactive) | > 100 µM (inactive) | > 100 µM (inactive) | > 100 µM (inactive) | > 100 µM (inactive) | > 100 µM (inactive) | > 100 µM (inactive) | > 100 µM (inactive) | > 100 µM (inactive) | > 100 µM (inactive) | > 100 µM (inactive) | 33 µM (inactive) | > 100 µM (inactive) | > 100 µM (inactive) | > 100 µM (inactive) | > 100 µM (inactive) | > 100 µM (inactive) | > 100 µM (inactive)
7 | CC(C)(C)c1ccc(-n2c3nc(=O)n(-c4ccccc4C(F)(F)F)c(=O)c-3cc3ccccc32)cc1 | 31.8 µM (inactive) | 29.1 µM (inactive) | 24 µM (inactive) | 32.3 µM (inactive) | 16.2 µM (inactive) | 25.1 µM (inactive) | 15.6 µM (inactive) | 11 µM (inactive) | 23.4 µM (inactive) | 18.3 µM (inactive) | 22.9 µM (inactive) | 13.6 µM (inactive) | 18.6 µM (inactive) | 30.5 µM (inactive) | 24.2 µM (inactive) | – | 29 µM (inactive) | 20.2 µM (inactive) | 9.77 µM (inactive)
8 | Nc1cccnc1NCC1(CO)CCCC1 | – | > 100 µM (inactive) | > 100 µM (inactive) | > 100 µM (inactive) | > 100 µM (inactive) | > 100 µM (inactive) | > 100 µM (inactive) | > 100 µM (inactive) | > 100 µM (inactive) | > 100 µM (inactive) | > 100 µM (inactive) | > 100 µM (inactive) | > 100 µM (inactive) | > 100 µM (inactive) | > 100 µM (inactive) | > 100 µM (inactive) | > 100 µM (inactive) | > 100 µM (inactive) | > 100 µM (inactive)
9 | CC(=O)OCC1OC(n2c3c(c(-c4ccc(Cl)cc4)c(C#N)c2=S)C(=O)CC(C)(C)C3)C(OC(C)=O)C(OC(C)=O)C1OC(C)=O (configuration not stated) | > 45.4 µM (inactive) | 40.7 µM (inactive) | 3.14 µM (inactive) | 28.8 µM (inactive) | 29.7 µM (inactive) | 11.4 µM (inactive) | 12.7 µM (inactive) | 19.1 µM (inactive) | 12 µM (inactive) | 42 µM (inactive) | 6.98 µM (inactive) | 32.7 µM (inactive) | – | 12.1 µM (inactive) | 7.48 µM (inactive) | 4.59 µM (inactive) | 38 µM (inactive) | 35.8 µM (inactive) | 5.33 µM (inactive)
10 | C=C(CN)CO[Si](C)(C)C(C)(C)C | > 100 µM (inactive) | > 100 µM (inactive) | > 100 µM (inactive) | > 100 µM (inactive) | > 100 µM (inactive) | > 100 µM (inactive) | > 100 µM (inactive) | > 100 µM (inactive) | > 100 µM (inactive) | > 100 µM (inactive) | > 100 µM (inactive) | > 100 µM (inactive) | > 100 µM (inactive) | > 100 µM (inactive) | – | > 100 µM (inactive) | > 100 µM (inactive) | > 100 µM (inactive) | > 100 µM (inactive)
11 | CN(C)CCn1c(=O)nc2c3c(c([N+](=O)[O-])ccc31)Nc1ccc(O)cc1-2 | 2.03 µM (inactive) | 1.16 µM (inactive) | 14.5 µM (inactive) | 5.46 µM (inactive) | 5.47 µM (inactive) | 5.53 µM (inactive) | 10.4 µM (inactive) | 1.53 µM (inactive) | 34.2 µM (inactive) | 2.47 µM (inactive) | 2.37 µM (inactive) | 2.01 µM (inactive) | 8.04 µM (inactive) | 1.95 µM (inactive) | 1.63 µM (inactive) | 4.16 µM (inactive) | 2.53 µM (inactive) | 15.1 µM (inactive) | –
12 | Cc1cc(OC(=O)Nc2ccc(Cl)cc2)ccc1C(=S)Nc1ccccc1 | > 100 µM (inactive) | > 100 µM (inactive) | 91.8 µM (inactive) | – | 8.93 µM (inactive) | 31.8 µM (inactive) | 54 µM (inactive) | > 100 µM (inactive) | 48.1 µM (inactive) | > 100 µM (inactive) | 34.2 µM (inactive) | 50.6 µM (inactive) | 60.3 µM (inactive) | 47.9 µM (inactive) | – | > 100 µM (inactive) | 50.2 µM (inactive) | 57 µM (inactive) | 14 µM (inactive)
13 | COC(=O)C(Cc1ccccc1)NP(=O)(O)OCC1OC(n2cc(I)c(=O)[nH]c2=O)CC1O (configuration not stated) | > 100 µM (inactive) | > 100 µM (inactive) | > 100 µM (inactive) | > 100 µM (inactive) | > 100 µM (inactive) | > 100 µM (inactive) | > 100 µM (inactive) | > 100 µM (inactive) | > 100 µM (inactive) | > 100 µM (inactive) | > 100 µM (inactive) | > 100 µM (inactive) | > 100 µM (inactive) | > 100 µM (inactive) | – | > 100 µM (inactive) | > 100 µM (inactive) | – | > 100 µM (inactive)
14 | [O-]/[N+](=N\c1ccccc1CO)c1ccccc1CO | > 100 µM (inactive) | – | > 100 µM (inactive) | > 100 µM (inactive) | > 100 µM (inactive) | > 100 µM (inactive) | > 100 µM (inactive) | > 100 µM (inactive) | > 100 µM (inactive) | – | > 100 µM (inactive) | > 100 µM (inactive) | > 100 µM (inactive) | > 100 µM (inactive) | > 100 µM (inactive) | > 100 µM (inactive) | > 100 µM (inactive) | > 100 µM (inactive) | > 100 µM (inactive)
15 | Nc1nnc(-c2ccco2)c(-c2ccco2)n1 | > 100 µM (inactive) | > 100 µM (inactive) | > 100 µM (inactive) | > 100 µM (inactive) | > 100 µM (inactive) | > 100 µM (inactive) | > 100 µM (inactive) | > 100 µM (inactive) | > 100 µM (inactive) | – | > 100 µM (inactive) | > 100 µM (inactive) | > 100 µM (inactive) | > 100 µM (inactive) | > 100 µM (inactive) | > 100 µM (inactive) | > 100 µM (inactive) | > 100 µM (inactive) | > 100 µM (inactive)
16 | CC(=O)C(C(=O)C(C)(C)C)C(=O)C(C)(C)C | > 100 µM (inactive) | – | > 100 µM (inactive) | – | > 100 µM (inactive) | > 100 µM (inactive) | > 100 µM (inactive) | > 100 µM (inactive) | > 100 µM (inactive) | > 100 µM (inactive) | > 100 µM (inactive) | – | – | > 100 µM (inactive) | > 100 µM (inactive) | > 100 µM (inactive) | > 100 µM (inactive) | > 100 µM (inactive) | > 100 µM (inactive)
